From patent publication US20250136595A1, “ACYLATED HETEROCYCLIC QUINAZOLINE DERIVATIVES AS INHIBITORS OF ERBB2” (Enliven Inc., priority 2022, published 2025) come the findings set out here.

Assay [1] concerns the target Ba/F3 ERBB2 YVMA (Homo sapiens, UniProt P04626, DUP772-775, cells depend on it). Put plainly: Cell viability assay (CellTiter Glo) in Ba/F3 cells engineered to express ERBB2 YVMA. It is filed as cell-based, mouse. The settings on record: Ba/F3 cells expressing human ERBB2 YVMA mutant, 72 hours, % viability, read-out: Ba/F3 ERBB2 YVMA IC50. Here is the method:
Cells were treated with compounds, and cell viability was measured as a metric of kinase inhibition.
The Ba/F3 cell line is IL-3-dependent mouse cell line derived from the C3H mouse strain. Ba/F3 cell lines were engineered to express human ERBB2 or EGFR kinases, rendering the cells IL-3 independent. The lines were generated via retroviral transduction utilizing a Moloney murine leukemia virus (MMLV) promoter, and constructs are stably integrated into the cell genome. The sequences of the ERBB2 and EGFR genes used were NCBI Reference Sequences NM_004448.3 and NM_005228.3, respectively.
Similarly, Ba/F3 cell lines engineered to express EGFR, ERBB2, or ERBB2 mutants were grown, harvested, counted and seeded at 3000 cells per well in 96-well plates for the data sets shown in Tables B3-B4. A subset of wells contained media only (low control, “LC”).
Table B1 provides the growth media and number of cells seeded per well for the each cell line.
Compounds were dissolved in DMSO and serially diluted. Serially-diluted compound or a DMSO only control (high control, “HC”) was added to the plated cells in each well. […] The final proportion of DMSO never exceeded 0.1%.
Plates were placed in a 37° C., 5% CO2 incubator for 72 hours. Plates were then removed from the incubator and equilibrated for 15 minutes at room temperature. 40 μl of CellTiter Glo reagent (Promega) was added to measure the relative level of metabolically active cells by quantifying intracellular ATP concentrations. Plates were incubated for 30 minutes at room temperature, and luminescence was measured. Percent viability was normalized to a vehicle control only using the following formula: % viability=100×(Lumsample−LumLC)/(LumHC−LumLC). Graphical curves were fitted using a nonlinear regression model with a sigmoidal dose response.

Assay [2] deals with T1, phosphorylated ERBB2 (pERBB2) (Homo sapiens, UniProt P04626).
T1 construct: endogenous in cells; host or cells: BT-474
Put plainly: Detection of phosphorylated ERBB2 (pERBB2) by ELISA in BT-474 cells. Format: cell-based. The settings on record: four hour incubation with compound. Here is the method: BT-474 cells were seeded into a 96-well at 2.0*10^4 cells/100 μl/well. Compounds were dissolved and serially diluted in DMSO. The compounds were then were added, mixed, and incubated for four hours at 37° C., 5% CO2. Compounds were added using four-fold dilutions at final concentrations ranging from 10 μM to 0.01 nM. Following the four hour incubation with compounds, cell lysates were prepared. Plates were centrifuged for 5 min at 3000 RPM, and supernatant was removed from each well. Cells were washed 3 times by resuspension in 150 μl PBS, followed by centrifugation and removal of the supernatant, as above. […] Cells were incubated with lysis buffer for 1 hour at 4° C., and then stored at -80° C. Enzyme-linked immunosorbent assays (ELISA) were performed to measure phosphorylated ERBB2 levels. […] The next day, plates were washed with PBS+0.05% Tween20 (PBST). 150 μl of 5% BSA blocking solution was added for 1 hour at room temperature, with shaking. Plates were washed with PBST. Cell lysates were thawed and 100 μl of lysate was added to the ELISA plate. The plates were incubated for 2 hours at room temperature, with shaking. […] Plates were incubated for 1 hour at room temperature, with shaking. Plates were then washed with PBST, and 100 μl TMB substrate solution (R&D Systems, cat #DY999) was added. Plate were incubated in the dark for 20 minutes at room temperature. 50 μl of Stop solution (R&D Systems, cat #DY994) (50 μl) was added to each well and mixed. Optical density at 450 nm was read on an EnSpire plate reader (Perkin Elmer). The remaining kinase activity by calculated using the following formula: % Relative activity=100×([…]). The low and high control values (“LC” and “HC”) were generated from lysate from wells without cells or with cells treated with 0.1% DMSO, respectively.

For assay [3], the target named is T2, phosphorylated EGFR (pEGFR) (Homo sapiens, UniProt P00533).
T2 construct: performed to measure phosphorylated EGFR levels using A431 cells; endogenous in cells; host or cells: A431
Put plainly: Detection of phosphorylated EGFR (pEGFR) in EGF-stimulated A431 cells (AlphaLISA). Format: cell-based. The settings on record: A431 cells (10% FBS), 4 hours incubation, EGF 30 ng/mL for 10 minutes. Here is the method:
Enzyme-linked immunosorbent assays (ELISA) were performed to measure phosphorylated EGFR levels using A431 cells (10% FBS). A431 (1.0*10^4 cells/40 μl/well) cells were seeded in 384 well. Compounds were dissolved in DMSO, serially diluted in DMSO and then were added, mixed, and incubated for 4 hours at 37° C., 5% CO2. Following the 4-hours incubation, cells were stimulated for 10 minutes with EGF (Invitrogen, cat #PHG0311) at a final concentration of 30 ng/mL in the incubator. The media was aspirated and cells were lysed in 10 μL lysis buffer with protease and phosphatase inhibitors (PerkinElmer, cat #ALSU-PEGFR-A50K). The plates were placed on a shaker for 5 minutes and then incubated for 30 min at 4° C. for complete lysis. The lysate was transferred to an Optiplate (Perkin Elmer, cat #6007290).
Acceptor mix (PerkinElmer, cat #ALSU-PEGFR-A50K) was prepared just before use and 5 μL was dispensed to all the wells, followed by a 1.5-2 h incubation at room temperature in dark. The donor mix (PerkinElmer, cat #ALSU-PEGFR-A50K) was prepared under low light conditions prior to use and 5 μl of donor mix was added to all the wells under subdued lighting or green filters. The plates were placed on a shaker for 5 min, sealed, and incubated overnight at room temperature in dark. Plates were read on the Envision (PerkinElmer) using standard AlphaLISA settings.
The percentage of inhibition on EGFR phosphorylation was calculated following equation: % Inhibition=100×(LumHC−LumSample)/(LumHC−LumLC). The low and high controls (LC/HC) are generated from lysate from wells with cells treated with DMSO or […] Staurosporine (BioAustralis, cat #BIA-S1086), […]. IC50 values were calculated by fitting the Curve using XLfit (v5.3.1.3), equation 201: Y=Bottom+ (Top−Bottom)/(1+10^((LogIC50−X)*HillSlope)).

Chain of Ba/F3 ERBB2 YVMA (P04626 with tags, fused parts or gaps DUP772-775): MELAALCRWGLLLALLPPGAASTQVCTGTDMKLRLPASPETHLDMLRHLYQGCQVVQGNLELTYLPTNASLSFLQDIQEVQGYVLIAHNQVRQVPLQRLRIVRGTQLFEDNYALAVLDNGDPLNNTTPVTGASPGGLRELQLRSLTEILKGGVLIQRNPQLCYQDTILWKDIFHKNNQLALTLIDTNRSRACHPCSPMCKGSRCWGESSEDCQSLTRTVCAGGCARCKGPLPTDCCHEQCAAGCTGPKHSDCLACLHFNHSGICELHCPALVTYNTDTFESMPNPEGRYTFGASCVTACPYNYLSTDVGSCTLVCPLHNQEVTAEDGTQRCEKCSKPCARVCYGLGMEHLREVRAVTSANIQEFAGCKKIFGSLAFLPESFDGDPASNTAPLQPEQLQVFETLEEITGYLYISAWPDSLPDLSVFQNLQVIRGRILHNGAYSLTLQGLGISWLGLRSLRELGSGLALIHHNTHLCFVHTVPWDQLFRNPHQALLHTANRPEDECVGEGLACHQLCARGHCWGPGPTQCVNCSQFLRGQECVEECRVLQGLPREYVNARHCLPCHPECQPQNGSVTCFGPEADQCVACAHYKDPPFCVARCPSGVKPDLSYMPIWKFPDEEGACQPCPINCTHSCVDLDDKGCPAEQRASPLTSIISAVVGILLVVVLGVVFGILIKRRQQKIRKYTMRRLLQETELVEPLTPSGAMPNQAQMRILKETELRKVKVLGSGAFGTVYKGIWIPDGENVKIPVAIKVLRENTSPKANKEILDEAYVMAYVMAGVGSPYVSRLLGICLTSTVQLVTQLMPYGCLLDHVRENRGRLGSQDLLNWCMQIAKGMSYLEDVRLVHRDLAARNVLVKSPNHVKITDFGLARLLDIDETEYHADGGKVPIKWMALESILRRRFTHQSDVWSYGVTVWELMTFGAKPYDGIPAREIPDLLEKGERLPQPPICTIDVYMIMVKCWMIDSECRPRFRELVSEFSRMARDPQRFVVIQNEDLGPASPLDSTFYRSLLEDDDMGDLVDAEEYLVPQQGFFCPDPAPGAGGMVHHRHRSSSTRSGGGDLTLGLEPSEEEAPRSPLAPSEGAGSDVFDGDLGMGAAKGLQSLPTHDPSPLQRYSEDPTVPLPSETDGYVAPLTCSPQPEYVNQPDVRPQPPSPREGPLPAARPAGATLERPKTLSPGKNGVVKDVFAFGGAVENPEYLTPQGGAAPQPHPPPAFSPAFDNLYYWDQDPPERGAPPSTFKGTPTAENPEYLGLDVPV
T2 sequence (P00533 25-1210): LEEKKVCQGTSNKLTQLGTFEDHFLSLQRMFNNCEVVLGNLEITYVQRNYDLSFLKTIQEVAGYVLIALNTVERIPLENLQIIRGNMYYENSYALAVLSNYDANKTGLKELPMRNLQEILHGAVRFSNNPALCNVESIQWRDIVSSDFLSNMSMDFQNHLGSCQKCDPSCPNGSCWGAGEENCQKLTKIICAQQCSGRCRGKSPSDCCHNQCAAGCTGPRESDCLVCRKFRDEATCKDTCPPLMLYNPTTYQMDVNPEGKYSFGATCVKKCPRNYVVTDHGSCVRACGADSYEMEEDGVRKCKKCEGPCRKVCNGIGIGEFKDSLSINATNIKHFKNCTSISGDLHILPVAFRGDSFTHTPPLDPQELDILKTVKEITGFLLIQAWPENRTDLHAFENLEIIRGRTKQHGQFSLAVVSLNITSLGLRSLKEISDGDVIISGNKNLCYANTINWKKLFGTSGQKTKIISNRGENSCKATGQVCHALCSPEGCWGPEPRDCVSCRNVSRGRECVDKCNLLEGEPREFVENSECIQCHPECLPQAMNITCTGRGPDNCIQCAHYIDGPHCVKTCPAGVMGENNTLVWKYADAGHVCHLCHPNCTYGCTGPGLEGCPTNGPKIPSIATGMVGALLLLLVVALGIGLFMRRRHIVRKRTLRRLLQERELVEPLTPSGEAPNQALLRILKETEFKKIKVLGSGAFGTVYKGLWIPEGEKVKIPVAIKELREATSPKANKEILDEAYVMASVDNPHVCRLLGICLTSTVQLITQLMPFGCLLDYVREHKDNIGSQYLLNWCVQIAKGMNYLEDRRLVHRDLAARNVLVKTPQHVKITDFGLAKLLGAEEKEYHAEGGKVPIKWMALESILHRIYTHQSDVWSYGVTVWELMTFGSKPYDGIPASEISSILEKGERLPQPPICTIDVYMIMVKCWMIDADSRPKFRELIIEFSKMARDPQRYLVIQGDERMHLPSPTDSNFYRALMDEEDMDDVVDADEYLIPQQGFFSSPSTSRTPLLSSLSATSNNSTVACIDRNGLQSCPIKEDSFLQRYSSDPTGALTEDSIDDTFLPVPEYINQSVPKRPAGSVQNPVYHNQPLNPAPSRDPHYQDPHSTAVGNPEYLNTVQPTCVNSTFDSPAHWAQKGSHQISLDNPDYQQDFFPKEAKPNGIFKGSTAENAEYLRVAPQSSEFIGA
T1 sequence (P04626 23-1255): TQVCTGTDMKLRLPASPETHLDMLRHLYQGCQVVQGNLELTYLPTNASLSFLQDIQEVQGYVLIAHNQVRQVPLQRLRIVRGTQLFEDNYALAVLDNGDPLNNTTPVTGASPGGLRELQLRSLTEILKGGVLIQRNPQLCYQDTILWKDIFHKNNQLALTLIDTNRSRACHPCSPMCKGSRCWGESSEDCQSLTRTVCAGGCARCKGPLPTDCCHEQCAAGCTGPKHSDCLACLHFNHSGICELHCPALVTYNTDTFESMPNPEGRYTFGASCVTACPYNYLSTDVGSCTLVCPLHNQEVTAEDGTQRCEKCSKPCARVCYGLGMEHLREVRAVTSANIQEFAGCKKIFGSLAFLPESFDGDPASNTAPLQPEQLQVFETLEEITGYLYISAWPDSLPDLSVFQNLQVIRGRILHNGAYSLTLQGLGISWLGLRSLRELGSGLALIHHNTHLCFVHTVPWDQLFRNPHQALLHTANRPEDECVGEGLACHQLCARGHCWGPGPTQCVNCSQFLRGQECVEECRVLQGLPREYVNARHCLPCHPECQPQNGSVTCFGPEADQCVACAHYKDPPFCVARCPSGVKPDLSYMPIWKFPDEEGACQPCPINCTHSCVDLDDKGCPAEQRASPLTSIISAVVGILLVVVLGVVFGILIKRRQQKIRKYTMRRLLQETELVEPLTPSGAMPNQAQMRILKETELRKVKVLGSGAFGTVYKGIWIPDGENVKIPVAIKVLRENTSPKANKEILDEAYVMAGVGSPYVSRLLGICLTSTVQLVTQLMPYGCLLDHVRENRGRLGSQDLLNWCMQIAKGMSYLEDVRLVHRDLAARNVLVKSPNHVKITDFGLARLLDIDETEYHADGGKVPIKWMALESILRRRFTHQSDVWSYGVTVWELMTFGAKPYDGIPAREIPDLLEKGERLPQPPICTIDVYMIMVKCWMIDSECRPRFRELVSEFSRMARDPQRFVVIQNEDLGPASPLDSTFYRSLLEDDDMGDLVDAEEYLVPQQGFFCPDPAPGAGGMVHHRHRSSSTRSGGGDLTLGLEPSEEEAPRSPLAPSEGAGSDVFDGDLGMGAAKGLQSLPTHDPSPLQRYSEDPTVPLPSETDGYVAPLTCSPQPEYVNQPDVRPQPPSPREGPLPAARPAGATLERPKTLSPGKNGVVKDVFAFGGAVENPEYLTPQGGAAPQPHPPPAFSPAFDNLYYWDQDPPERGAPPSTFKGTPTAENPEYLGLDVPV

`Cc1cc(Nc2ncnc3ccc(NC4=NC(C)(C)CO4)cc23)ccc1Oc1ccn2ncnc2c1` [Tucatinib, tucatinib, reference compound]: the GI50 in assay [1] came out at 356 nM.

For the molecule `CC#CC(=O)N1CCN(c2ccc3ncnc(Nc4ccc(Oc5ccc6c(c5)ncn6C)c(C)c4)c3n2)C[C@H]1C` [Compound 65, 1-[(2R)-2-methyl-4-[4-({3-methyl-4-[(1-methyl-1,3-benzodiazol-5-yl)oxy]phenyl}amino)pyrido[3,2-d]pyrimidin-6-yl]piperazin-1-yl]but-2-yn-1-one], the GI50 in assay [1] stood at 4.38 nM. Further, the IC50 in assay [2] was 29.3 nM; in assay [3], 2790 nM.

On to `C=CC(=O)N1CCN(c2ccc3ncnc(Nc4ccc(Cc5ccc6c(c5)ncn6C)c(C)c4)c3c2F)C[C@H]1C` [Compound 78, 1-[(2R)-4-[5-fluoro-4-({3-methyl-4-[(1-methyl-1,3-benzodiazol-5-yl)methyl]phenyl}amino)quinazolin-6-yl]-2-methylpiperazin-1-yl]prop-2-en-1-one], for which the GI50 in assay [1] was 22.6 nM. Besides, the half-inhibitory concentration (IC50) was determined as 70.4 nM in assay [2] and 5130 nM in assay [3].

Turning to `C=CC(=O)N1CC[C@H](Nc2ccc3ncnc(Nc4ccc(Oc5ccn6ncnc6c5)c(C)c4)c3n2)C1` [Compound 43, 1-[(3S)-3-({4-[(3-methyl-4-{[1,2,4]triazolo[1,5-a]pyridin-7-yloxy}phenyl)amino]pyrido[3,2-d]pyrimidin-6-yl}amino)pyrrolidin-1-yl]prop-2-en-1-one], the GI50 in assay [1] was determined as 3.93 nM. In addition, the concentration for half-maximal inhibition (IC50) in assay [2] is 5.11 nM; in assay [3], 61.2 nM.

Regarding `C=CC(=O)N1CCN(c2cc3c(Nc4ccc(Cc5ccc6c(c5)ncn6C)c(C)c4)ncnc3cn2)[C@@H](C)C1` [Compound 86, 1-[(3S)-3-methyl-4-[4-({3-methyl-4-[(1-methyl-1,3-benzodiazol-5-yl)methyl]phenyl}amino)pyrido[3,4-d]pyrimidin-6-yl]piperazin-1-yl]prop-2-en-1-one], the GI50 in assay [1] is 20.5 nM. Also, the results for the concentration for half-maximal inhibition (IC50) in assay [2] and in assay [3] were 48.4 nM and 3180 nM, respectively.

For the molecule `C=CC(=O)N1CCC[C@H](Nc2ccc3ncnc(Nc4ccc(Oc5ccn6ncnc6c5)c(C)c4)c3n2)C1` [Compound 41, (S)-1-(3-((4-((4-([1,2,4]triazolo[1,5-a]pyridin-7-yloxy)-3-methylphenyl)amino)pyrido[3,2-d]pyrimidin-6-yl)amino)piperidin-1-yl)prop-2-en-1-one], the GI50 in assay [1] stood at 19.7 nM. In addition, the half-inhibitory concentration (IC50) came to 18.1 nM in assay [2] and 1590 nM in assay [3].

With `CC#CC(=O)N1C2CCC1CN(c1ccc3ncnc(Nc4ccc(Oc5ccn6ncnc6c5)c(C)c4)c3n1)C2` [Compound 27, 1-(3-{4-[(3-methyl-4-{[1,2,4]triazolo[1,5-a]pyridin-7-yloxy}phenyl)amino]pyrido[3,2-d]pyrimidin-6-yl}-3,8-diazabicyclo[3.2.1]octan-8-yl)but-2-yn-1-one], the GI50 in assay [1] was determined as 27.4 nM. In addition, the half-inhibitory concentration (IC50) in assay [2] came out at 60.4 nM; in assay [3], 2800 nM.

As for `C=CC(=O)N1CCN(c2ccc3ncnc(Nc4ccc(Oc5ccn6ncnc6c5)c(C)c4)c3c2F)C[C@H]1C` [Compound 63, (R)-1-(4-(4-((4-([1,2,4]triazolo[1,5-a]pyridin-7-yloxy)-3-methylphenyl)amino)-5-fluoroquinazolin-6-yl)-2-methylpiperazin-1-yl)prop-2-en-1-one], in assay [1], the GI50 amounted to 10.5 nM. In addition, the half-maximal inhibitory concentration (IC50) is 21.4 nM in assay [2] and 5500 nM in assay [3].

Consider `C=CC(=O)N1CCN(c2ncc3ncnc(Nc4ccc(Cc5ccn6ncnc6c5)c(C)c4)c3n2)[C@@H](C)C1` [Compound 113, 1-[(3S)-3-methyl-4-{8-[(3-methyl-4-{[1,2,4]triazolo[1,5-a]pyridin-7-ylmethyl}phenyl)amino]pyrimido[5,4-d][1,3]diazin-2-yl}piperazin-1-yl]prop-2-en-1-one], for which the GI50 in assay [1] amounted to 8.87 nM. Further, the IC50 was 31.9 nM in assay [2] and greater than 10000 nM in assay [3].

In the case of `C=CC(=O)N1CCN(c2ccc3ncnc(Nc4ccc(Oc5ccn6ncnc6c5)c(C)c4)c3n2)[C@H](C)C1` [Compound 11, 1-[(3R)-3-methyl-4-{4-[(3-methyl-4-{[1,2,4]triazolo[1,5-a]pyridin-7-yloxy}phenyl)amino]pyrido[3,2-d]pyrimidin-6-yl}piperazin-1-yl]prop-2-en-1-one], the GI50 in assay [1] was 17.9 nM. In addition, the IC50 in assay [2] worked out at 16.3 nM; in assay [3] it was 2360 nM.

With `C=CC(=O)N1CCN(c2cc3c(Nc4ccc(Oc5ccc6c(c5)ncn6C)c(C)c4)ncnc3cn2)C[C@H]1C` [Compound 59, 1-[(2R)-2-methyl-4-[4-({3-methyl-4-[(1-methyl-1,3-benzodiazol-5-yl)oxy]phenyl}amino)pyrido[3,4-d]pyrimidin-6-yl]piperazin-1-yl]prop-2-en-1-one], in assay [1], the GI50 is 27.4 nM. The IC50 in assay [2] stood at 20.1 nM; in assay [3], 3800 nM.

Take `C=CC(=O)N1CCN(c2ncc3ncnc(Nc4ccc(Cc5ccc6c(c5)ncn6C)c(C)c4)c3n2)C[C@H]1C` [Compound 96, (R)-1-(2-methyl-4-(8-((3-methyl-4-((1-methyl-1H-benzo[d]imidazol-5-yl)methyl)phenyl)amino)pyrimido[5,4-d]pyrimidin-2-yl)piperazin-1-yl)prop-2-en-1-one]: in assay [1], the GI50 worked out at 12.5 nM. Moreover, the half-inhibitory concentration (IC50) in assay [2] was determined as 63.1 nM; in assay [3], 7290 nM.

Turning to `C=CC(=O)N1C2CC1CN(c1ccc3ncnc(Nc4ccc(Oc5ccn6ncnc6c5)c(C)c4)c3n1)C2` [Compound 15, 1-(3-{4-[(3-methyl-4-{[1,2,4]triazolo[1,5-a]pyridin-7-yloxy}phenyl)amino]pyrido[3,2-d]pyrimidin-6-yl}-3,6-diazabicyclo[3.1.1]heptan-6-yl)prop-2-en-1-one], in assay [1], the GI50 was found to be 17.4 nM. In addition, the results for the half-inhibitory concentration (IC50) in assay [2] and in assay [3] were 19.8 nM and 629 nM, respectively.

As to `CC#CC(=O)N1C2CC1CN(c1ccc3ncnc(Nc4ccc(Oc5ccn6ncnc6c5)c(C)c4)c3n1)C2` [Compound 29, 1-(3-{4-[(3-methyl-4-{[1,2,4]triazolo[1,5-a]pyridin-7-yloxy}phenyl)amino]pyrido[3,2-d]pyrimidin-6-yl}-3,6-diazabicyclo[3.1.1]heptan-6-yl)but-2-yn-1-one], the GI50 in assay [1] is 35.9 nM. 5430 nM corresponded to half-maximal inhibition in assay [3] (IC50).
